According to ChEMBL document CHEMBL3044552, “Synthesis and biological evaluation of 1-(3-chloro-2-oxo-4-phenylazetidin-1-yl)-3-(2-oxo-2-(10H-phenothiazin-10-yl)ethyl)urea derivatives” (Med Chem Res, 2013):
Values after ≈ are worked out from the molar mass of the structure shown. Active and inactive are the calls of the source. The rule behind the calls is not given here.

Experiments:
[1] = system: Trichophyton rubrum; assay: Antifungal activity against Trichophyton rubrum after 18 hr by serial dilution method; type: functional
[2] = system: Aspergillus niger; assay: Antifungal activity against Aspergillus niger after 18 hr by serial dilution method; type: functional
[3] = system: Monascus purpureus; assay: Antifungal activity against Monascus purpureus after 18 hr by serial dilution method; type: functional
[4] = system: Candida albicans; assay: Antifungal activity against Candida albicans after 18 hr by serial dilution method; type: functional
[5] = system: Trichophyton rubrum; assay: Antifungal activity against Trichophyton rubrum after 24 hr by disk diffusion method; type: functional
[6] = system: Aspergillus niger; assay: Antifungal activity against Aspergillus niger after 24 hr by disc diffusion method; type: functional
[7] = system: Monascus purpureus; assay: Antifungal activity against Monascus purpureus after 24 hr by disk diffusion method; type: functional
[8] = system: Mycobacterium tuberculosis; assay: Growth inhibition of Mycobacterium tuberculosis H37Rv at 1 ug/ml after 7 days by resazurin microplate assay; type: functional, organism-based
[9] = system: Staphylococcus epidermidis; assay: Antibacterial activity against Staphylococcus albus after 18 hr by serial dilution method; type: functional
[10] = system: Bacillus subtilis; assay: Antibacterial activity against Bacillus subtilis after 18 hr by serial dilution method; type: functional
[11] = system: Staphylococcus aureus; assay: Antibacterial activity against Staphylococcus aureus after 18 hr by serial dilution method; type: functional
[12] = system: Micrococcus luteus; assay: Antibacterial activity against Micrococcus luteus after 18 hr by serial dilution method; type: functional
[13] = system: Vibrio cholerae; assay: Antibacterial activity against Vibrio cholerae after 18 hr by serial dilution method; type: functional
[14] = system: Salmonella paratyphi; assay: Antibacterial activity against Salmonella enterica subsp. enterica serovar Paratyphi A after 18 hr by serial dilution method; type: functional
[15] = system: Escherichia coli; assay: Antibacterial activity against Escherichia coli after 18 hr by serial dilution method; type: functional
[16] = system: Pseudomonas aeruginosa; assay: Antibacterial activity against Pseudomonas aeruginosa after 18 hr by serial dilution method; type: functional
[17] = system: Candida albicans; assay: Antifungal activity against Candida albicans after 24 hr by disk diffusion method; type: functional
[18] = system: Staphylococcus epidermidis; assay: Antibacterial activity against Staphylococcus albus after 24 hr by disk diffusion method; type: functional
[19] = system: Bacillus subtilis; assay: Antibacterial activity against Bacillus subtilis after 24 hr by disk diffusion method; type: functional
[20] = system: Staphylococcus aureus; assay: Antibacterial activity against Staphylococcus aureus after 24 hr by disk diffusion method; type: functional
[21] = system: Micrococcus luteus; assay: Antibacterial activity against Micrococcus luteus after 24 hr by disk diffusion method; type: functional
[22] = Antioxidant activity assessed as reduction of ferric ion after 30 min by spectrophotometric analysis; type: functional
[23] = system: Radical scavenging activity; assay: Antioxidant activity assessed as DPPH radical scavenging activity after 30 min by spectrophotometric analysis; type: functional
[24] = system: Mycobacterium tuberculosis; assay: Growth inhibition of Mycobacterium tuberculosis H37Rv at 100 ug/ml after 7 days by resazurin microplate assay; type: functional, organism-based
[25] = system: Mycobacterium tuberculosis; assay: Growth inhibition of Mycobacterium tuberculosis H37Rv at 10 ug/ml after 7 days by resazurin microplate assay; type: functional, organism-based
[26] = system: Pseudomonas aeruginosa; assay: Antibacterial activity against Pseudomonas aeruginosa after 24 hr by disc diffusion method; type: functional
[27] = system: Escherichia coli; assay: Antibacterial activity against Escherichia coli after 24 hr by disc diffusion method; type: functional
[28] = system: Salmonella paratyphi; assay: Antibacterial activity against Salmonella enterica subsp. enterica serovar Paratyphi A after 24 hr by disk diffusion method; type: functional
[29] = system: Vibrio cholerae; assay: Antibacterial activity against Vibrio cholerae after 24 hr by disk diffusion method; type: functional
[30] = system: HeLa; assay: Cytotoxicity against Homo sapiens (human) HeLa cells after 48 hr by MTT assay; type: functional, cell-based
[31] = system: HeLa; assay: Growth inhibition of Homo sapiens (human) HeLa cells at 100 uM after 48 hr by MTT assay; type: functional; conditions: read-out: GI
[32] = system: HeLa; assay: Growth inhibition of Homo sapiens (human) HeLa cells at 50 uM after 48 hr by MTT assay; type: functional; conditions: read-out: GI
[33] = system: HeLa; assay: Growth inhibition of Homo sapiens (human) HeLa cells at 25 uM after 48 hr by MTT assay; type: functional; conditions: read-out: GI
[34] = system: HeLa; assay: Growth inhibition of Homo sapiens (human) HeLa cells at 12.5 uM after 48 hr by MTT assay; type: functional; conditions: read-out: GI
[35] = system: HeLa; assay: Growth inhibition of Homo sapiens (human) HeLa cells at 6.25 uM after 48 hr by MTT assay; type: functional; conditions: read-out: GI

Row | SMILES | MIC [1] | MIC [2] | MIC [3] | MIC [4] | diameter of the inhibition zone (DIZ) [5] | diameter of the inhibition zone (DIZ) [6] | diameter of the inhibition zone (DIZ) [7] | MIC [9] | MIC [10] | MIC [11] | MIC [12] | MIC [13] | MIC [14] | MIC [15] | MIC [16] | diameter of the inhibition zone (DIZ) [17] | diameter of the inhibition zone (DIZ) [18] | diameter of the inhibition zone (DIZ) [19] | diameter of the inhibition zone (DIZ) [20] | diameter of the inhibition zone (DIZ) [21] | also measured
1 | Clc1ccccc1C(c1ccccc1)(c1ccccc1)n1ccnc1 [CLOTRIMAZOLE] | 62.5 µg/mL (≈ 181 µM) | 125 µg/mL (≈ 362 µM) | 62.5 µg/mL (≈ 181 µM) | 62.5 µg/mL (≈ 181 µM) | 22 mm | 4 mm | 20 mm |  |  |  |  |  |  |  |  |  |  |  |  |  | 
2 | CN(C)c1ccc(C2C(Cl)C(=O)N2NC(=O)NCC(=O)N2c3ccccc3Sc3ccccc32)cc1 (configuration not stated) | 250 µg/mL (≈ 479 µM) | 125 µg/mL (≈ 239 µM) | 250 µg/mL (≈ 479 µM) | 250 µg/mL (≈ 479 µM) | 7 mm | 8 mm | 7 mm | 125 µg/mL (≈ 239 µM) | 125 µg/mL (≈ 239 µM) | 125 µg/mL (≈ 239 µM) | 250 µg/mL (≈ 479 µM) | 125 µg/mL (≈ 239 µM) | 250 µg/mL (≈ 479 µM) | 250 µg/mL (≈ 479 µM) | 62.5 µg/mL (≈ 120 µM) | 7 mm | 8 mm | 8 mm | 8 mm | 5 mm | growth inhibition (GI) [8]: inactive; Activity [22]: Active; EC50 [23]: 55 µg/mL (≈ 105 µM); growth inhibition (GI) [24]: Active; growth inhibition (GI) [25]: inactive; diameter of the inhibition zone (DIZ) [26]: 12 mm; diameter of the inhibition zone (DIZ) [27]: 7 mm; diameter of the inhibition zone (DIZ) [28]: 6 mm; diameter of the inhibition zone (DIZ) [29]: 8 mm
3 | O=C(NCC(=O)N1c2ccccc2Sc2ccccc21)NN1C(=O)C(Cl)C1c1ccccc1Cl (configuration not stated) | 125 µg/mL (≈ 243 µM) | 125 µg/mL (≈ 243 µM) | 125 µg/mL (≈ 243 µM) | 62.5 µg/mL (≈ 122 µM) | 10 mm | 8 mm | 10 mm | 250 µg/mL (≈ 487 µM) | 250 µg/mL (≈ 487 µM) | 500 µg/mL (≈ 974 µM) | 250 µg/mL (≈ 487 µM) | 250 µg/mL (≈ 487 µM) | 125 µg/mL (≈ 243 µM) | 250 µg/mL (≈ 487 µM) | 250 µg/mL (≈ 487 µM) | 12 mm | 5 mm | 7 mm | 4 mm | 7 mm | Activity [22]: Active; EC50 [23]: 57 µg/mL (≈ 111 µM); diameter of the inhibition zone (DIZ) [26]: 7 mm; diameter of the inhibition zone (DIZ) [27]: 8 mm; diameter of the inhibition zone (DIZ) [28]: 12 mm; diameter of the inhibition zone (DIZ) [29]: 6 mm
4 | COc1cc(C2C(Cl)C(=O)N2NC(=O)NCC(=O)N2c3ccccc3Sc3ccccc32)ccc1O (configuration not stated) | 250 µg/mL (≈ 476 µM) | 250 µg/mL (≈ 476 µM) | 250 µg/mL (≈ 476 µM) | 125 µg/mL (≈ 238 µM) | 4 mm | 5 mm | 7 mm | 250 µg/mL (≈ 476 µM) | 250 µg/mL (≈ 476 µM) | 250 µg/mL (≈ 476 µM) | 250 µg/mL (≈ 476 µM) | 125 µg/mL (≈ 238 µM) | 125 µg/mL (≈ 238 µM) | 125 µg/mL (≈ 238 µM) | 125 µg/mL (≈ 238 µM) | 10 mm | 5 mm | 6 mm | 7 mm | 8 mm | diameter of the inhibition zone (DIZ) [26]: 10 mm; diameter of the inhibition zone (DIZ) [27]: 10 mm; diameter of the inhibition zone (DIZ) [28]: 10 mm; diameter of the inhibition zone (DIZ) [29]: 10 mm
5 | O=C(NCC(=O)N1c2ccccc2Sc2ccccc21)NN1C(=O)C(Cl)C1c1cccc(F)c1 (configuration not stated) | 125 µg/mL (≈ 252 µM) | 250 µg/mL (≈ 503 µM) | 125 µg/mL (≈ 252 µM) | 125 µg/mL (≈ 252 µM) | 7 mm | 7 mm | 10 mm | 125 µg/mL (≈ 252 µM) | 62.5 µg/mL (≈ 126 µM) | 250 µg/mL (≈ 503 µM) | 250 µg/mL (≈ 503 µM) | 125 µg/mL (≈ 252 µM) | 125 µg/mL (≈ 252 µM) | 250 µg/mL (≈ 503 µM) | 125 µg/mL (≈ 252 µM) | 11 mm | 11 mm | 11 mm | 7 mm | 7 mm | Activity [22]: Active; EC50 [23]: 47 µg/mL (≈ 94.6 µM); diameter of the inhibition zone (DIZ) [26]: 11 mm; diameter of the inhibition zone (DIZ) [27]: 6 mm; diameter of the inhibition zone (DIZ) [28]: 10 mm; diameter of the inhibition zone (DIZ) [29]: 9 mm
6 | O=C(NCC(=O)N1c2ccccc2Sc2ccccc21)NN1C(=O)C(Cl)C1c1ccc(O)cc1 (configuration not stated) | 250 µg/mL (≈ 505 µM) | 62.5 µg/mL (≈ 126 µM) | 500 µg/mL (≈ 1010 µM) | 62.5 µg/mL (≈ 126 µM) | 8 mm | 8 mm | 10 mm | 125 µg/mL (≈ 253 µM) | 125 µg/mL (≈ 253 µM) | 125 µg/mL (≈ 253 µM) | 62.5 µg/mL (≈ 126 µM) | 125 µg/mL (≈ 253 µM) | 62.5 µg/mL (≈ 126 µM) | 250 µg/mL (≈ 505 µM) | 62.5 µg/mL (≈ 126 µM) | 13 mm | 13 mm | 10 mm | 9 mm | 12 mm | IC50 [30]: 84.1 µM; inhibition of growth at 100 µM [31]: 53%; inhibition of growth at 50 µM [32]: 37.4%; inhibition of growth at 25 µM [33]: 19.1%; inhibition of growth at 12.5 µM [34]: 5.04%; inhibition of growth at 6.25 µM [35]: 0.123%; diameter of the inhibition zone (DIZ) [26]: 18 mm; diameter of the inhibition zone (DIZ) [27]: 5 mm; diameter of the inhibition zone (DIZ) [28]: 12 mm; diameter of the inhibition zone (DIZ) [29]: 9 mm
